From PubChem BioAssay (NCI) come the findings set out here.

Where “and” joins values, the source holds several entries; their conditions need not be identical. Equal entries are not always repeated.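 In this assay, cells in 96-well plates receive the compound at five concentrations for 48 hours. Endpoints are linearly interpolated between the surrounding concentrations. At the GI50, growth is halved. TGI: concentration producing complete growth inhibition.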

Among the test systems are HL-60(TB) leukemia; IGROV1 ovarian; LOX IMVI melanoma; NCI-H23 lung; NCI-H522 lung; SK-MEL-2 melanoma; SK-MEL-28 melanoma; SK-MEL-5 melanoma; SN12C renal; SNB-19 CNS; U251 CNS; MCF7 breast; 786-0 renal; HS 578T breast; T-47D breast.
Assay in all cases: NCI anticancer screen, dose series, 48 h

Take `COc1cc(C2c3cc4c(cc3[C@@H](NCCCN(C)C)[C@H]3COC(=O)C23)OCO4)cc(OC)c1O` (some centres not stated): the TGI in the assay on HL-60(TB) leukemia is 0.231 µM and 0.245 µM; in the assay with IGROV1 ovarian, 2.03 µM and 4.03 µM; in the assay on LOX IMVI melanoma, 0.927 µM and 2.11 µM; in the assay on NCI-H23 lung it was 0.759 µM and 1.56 µM; in the assay with NCI-H522 lung, 1.65 µM and 2.47 µM; in the assay with SK-MEL-2 melanoma it was 1.46 µM and 5.09 µM. The TGI in the assay on SK-MEL-28 melanoma is 2.09 µM and 8.62 µM; in the assay on SK-MEL-5 melanoma it was 0.825 µM and 1.15 µM; in the assay with SN12C renal, 0.502 µM and 1.14 µM; in the assay with SNB-19 CNS, 1.45 µM and 1.91 µM; in the assay on U251 CNS, 2.15 µM and 1.9 µM. Besides, the GI50 was 0.139 µM and 0.291 µM in the assay with NCI-H23 lung; 0.733 µM and 1.96 µM with SK-MEL-2 melanoma; 0.764 µM and 2.76 µM with SK-MEL-28 melanoma; 0.117 µM and 0.333 µM in the assay on SN12C renal.
With `Nc1nc(Cl)cc(NCCCCCCCCCCCCNc2cc(Cl)nc(N)n2)n1`, the TGI in the assay on HL-60(TB) leukemia was over 100 µM; in the assay with IGROV1 ovarian, over 100 µM; in the assay on LOX IMVI melanoma, 14.5 µM; in the assay on NCI-H23 lung, 12.6 µM; with SK-MEL-2 melanoma it was over 100 µM; in the assay with SK-MEL-28 melanoma, 30 µM. The TGI was 3.72 µM in the assay with SK-MEL-5 melanoma, over 100 µM in the assay on SN12C renal and 20.1 µM with U251 CNS.
As for `ClCc1ccc2ccc3ccc(CCl)nc3c2n1`, the TGI in the assay with HL-60(TB) leukemia worked out at 4.43 µM; in the assay with IGROV1 ovarian, 3.48 µM; in the assay with LOX IMVI melanoma, 2.9 µM; with MCF7 breast, 2.74 µM; in the assay with NCI-H23 lung, 7.88 µM; in the assay with NCI-H522 lung it was 3.44 µM. Also, the TGI came out at 4.81 µM in the assay on SK-MEL-2 melanoma; 4 µM in the assay on SK-MEL-28 melanoma; 3.13 µM in the assay with SK-MEL-5 melanoma; 27.9 µM in the assay with SNB-19 CNS; 3.78 µM with U251 CNS.
On to `CC[C@](C)(O)C(=O)O[C@H]1C(=O)O[C@@H]2C[C@H]3C(C)=C[C@H](O)[C@@H](O)[C@]3(C)[C@H]3[C@@]4(O)OC[C@]32[C@@H]1[C@@H](C)[C@H]4O`, for which the TGI is 43.1 µM in the assay with HL-60(TB) leukemia; 52.5 µM in the assay on IGROV1 ovarian; 68.4 µM with LOX IMVI melanoma; 39 µM in the assay on MCF7 breast; 13.5 µM in the assay with NCI-H23 lung; 9.8 µM in the assay on NCI-H522 lung. Also, the TGI was 118 µM in the assay on SK-MEL-2 melanoma; 123 µM in the assay with SK-MEL-28 melanoma; 30 µM in the assay with SK-MEL-5 melanoma; 310 µM in the assay with SN12C renal; 48.8 µM in the assay on SNB-19 CNS; 70.5 µM in the assay with U251 CNS.
On to `CCCCCCCSCC1C(=O)C23C(O)C1CCC2C12COC3(O)C(O)C1C(C)(C)CCC2O` (configuration not stated), for which the TGI stood at 26.7 µM with 786-0 renal; 16.3 µM in the assay with HL-60(TB) leukemia; 36.2 µM in the assay with IGROV1 ovarian; 29.2 µM in the assay with LOX IMVI melanoma; 34 µM with NCI-H23 lung; 3.04 µM with NCI-H522 lung. Besides, the TGI in the assay on SK-MEL-2 melanoma amounted to 29.8 µM; with SK-MEL-28 melanoma it was 22.7 µM; in the assay on SK-MEL-5 melanoma, 25.1 µM; in the assay with SN12C renal, 23.6 µM; in the assay with SNB-19 CNS it was 33.9 µM; in the assay on U251 CNS, 22.7 µM.
`CC(=O)c1cccc(NC(=O)C(=O)C(C(=O)c2ccccc2F)C2OC(=O)c3ccccc32)c1` (configuration not stated): the TGI with HL-60(TB) leukemia was 64.8 µM; with IGROV1 ovarian, over 100 µM; in the assay with LOX IMVI melanoma it was 62.9 µM; with NCI-H23 lung, over 100 µM; in the assay with NCI-H522 lung, 56.7 µM; in the assay on SK-MEL-2 melanoma, 96.1 µM. Moreover, the TGI in the assay on SK-MEL-28 melanoma was over 100 µM; in the assay with SK-MEL-5 melanoma it was over 100 µM; in the assay with SN12C renal, over 100 µM; with SNB-19 CNS it was over 100 µM; in the assay with U251 CNS it was 53.2 µM.
Take `COC(=O)C1(C)CCCC2(C)C3CCC4CC3(C=C4CO)CCC12` (configuration not stated): the TGI with 786-0 renal was over 100 µM; with HL-60(TB) leukemia, 43.9 µM; in the assay with HS 578T breast, over 100 µM; with IGROV1 ovarian, over 100 µM; in the assay on LOX IMVI melanoma, 47.4 µM; with MCF7 breast, 72.7 µM. The TGI is over 100 µM with NCI-H23 lung; over 100 µM in the assay with NCI-H522 lung; over 100 µM with SK-MEL-2 melanoma; over 100 µM in the assay with SK-MEL-28 melanoma; over 100 µM with SK-MEL-5 melanoma; 60.7 µM in the assay with SN12C renal. Moreover, the TGI in the assay with SNB-19 CNS, in the assay on T-47D breast and with U251 CNS was over 100 µM in each case.
`CC(C)CCCC(C)[C@H]1CC[C@H]2[C@@H]3CC[C@H]4C[C@@H](CCC=C(c5cc(Cl)c(O)c(C(=O)O)c5)c5cc(Cl)c(O)c(C(=O)O)c5)CC[C@]4(C)[C@H]3CC[C@]12C` (some centres not stated) (tested in a mixture with another compound): the TGI in the assay with 786-0 renal, with HL-60(TB) leukemia, with HS 578T breast, in the assay on IGROV1 ovarian, in the assay with LOX IMVI melanoma and with MCF7 breast was over 50 µM throughout. In addition, the TGI in the assay with NCI-H23 lung, in the assay with NCI-H522 lung, in the assay with SK-MEL-2 melanoma, in the assay with SK-MEL-28 melanoma, in the assay on SK-MEL-5 melanoma and in the assay on SN12C renal was over 50 µM in each case. For the same compound, the TGI with SNB-19 CNS, with T-47D breast and in the assay on U251 CNS was over 50 µM throughout.
Regarding `COC(=O)CCC(C)C1CCC2C3CCC4CC5CCC4(C)C3(O5)C(Br)C(Br)C12C` (configuration not stated), the TGI in the assay on 786-0 renal, in the assay with HL-60(TB) leukemia, in the assay with HS 578T breast, in the assay on IGROV1 ovarian, in the assay on LOX IMVI melanoma and in the assay on MCF7 breast was over 100 µM throughout. In addition, the TGI in the assay with NCI-H23 lung, in the assay on NCI-H522 lung, in the assay on SK-MEL-2 melanoma, in the assay on SK-MEL-28 melanoma, with SK-MEL-5 melanoma and in the assay with SN12C renal was over 100 µM each time. The TGI with SNB-19 CNS, in the assay on T-47D breast and in the assay with U251 CNS was over 100 µM throughout.
With `CC1CC(C)(O)CC(C(O)CC2CC(=O)NC(=O)C2)C1=O` (configuration not stated), the TGI with 786-0 renal is 0.741 µM; with HL-60(TB) leukemia, 1.1 µM; with HS 578T breast, 0.316 µM; with IGROV1 ovarian it was 1.55 µM; with LOX IMVI melanoma it was 0.785 µM; in the assay with MCF7 breast, 0.686 µM. For the same compound, the TGI in the assay with NCI-H23 lung was 1.56 µM; with NCI-H522 lung, under 0.0476 µM; with SK-MEL-2 melanoma, 2.68 µM; with SK-MEL-28 melanoma, 3.55 µM; in the assay with SK-MEL-5 melanoma it was 0.195 µM; in the assay on SN12C renal, 0.64 µM. In addition, the values for the TGI in the assay on SNB-19 CNS, with T-47D breast and with U251 CNS were 2.24 µM, 3.18 µM and 7.9 µM, respectively.
On to `CCOC(=O)C1=NN(c2ccccc2)C2=CC(C)=NN(C)C(=S)N21`, for which the TGI in the assay on HL-60(TB) leukemia, in the assay with HS 578T breast, with IGROV1 ovarian, with LOX IMVI melanoma, in the assay with MCF7 breast and in the assay with NCI-H23 lung was over 100 µM throughout. Further, the TGI with NCI-H522 lung, in the assay on SK-MEL-2 melanoma, in the assay on SK-MEL-28 melanoma, in the assay with SK-MEL-5 melanoma, in the assay on SN12C renal and with SNB-19 CNS was over 100 µM throughout. Also, the TGI in the assay with T-47D breast and in the assay on U251 CNS was over 100 µM throughout.
On to `CN(C)CCCNc1ccc2nnn3c4ccc(OC(=O)c5ccc([N+](=O)[O-])cc5)cc4c(=O)c1c23`, for which the TGI in the assay with 786-0 renal is 16.6 µM; in the assay on HS 578T breast, 34.8 µM; with IGROV1 ovarian it was over 100 µM; in the assay with LOX IMVI melanoma it was over 100 µM; with MCF7 breast it was over 38.9 µM; with NCI-H23 lung, 24.5 µM. Further, the TGI was 24 µM with NCI-H522 lung; over 52.1 µM in the assay with SK-MEL-2 melanoma; 26.6 µM with SK-MEL-28 melanoma; 19.6 µM with SN12C renal; 22.8 µM in the assay with SNB-19 CNS; 88.5 µM in the assay on T-47D breast. Also, the TGI in the assay on U251 CNS was 33.9 µM.
